This assay deals with influx of neutrophils to the lung in LPS-challenged rats. The assay is described as follows: Rat LPS neutrophilia model. In kind it is in vivo. The settings on record: LPS aerosol, intratracheal dosing, in at least one of the range of conditions tested, significance p<0.05. The protocol:
Rat LPS Neutrophilia Model
The effect of compounds on the influx of neutrophils to the lung in LPS-challenged rats is evaluated as follows. The test compound is suspended in one of the following solutions: 0.5% tween 80/PBS, 0.5% tween 80/saline, 10% EtOH/saline (with pH adjusted to 2.0, or 8.0 with HCl, or unadjusted), Saline @pH 2.0, 6.5 or 8.0, 0.5% Tragacanth, 1% DMSO/20% Encapsin/Saline, or acidified 5% Tragacanth. The suspension process may be aided by the use of a glass homogenizer. For intratracheal administration, the animals are anesthetized with inhaled isoflurane and placed in a supine position, the trachea is intubated with a steel gavage needle (1.5 inch, 22 gauge, small ball) or a Penn-Century Microsprayer Aerosolizer (model IA-1B) and 200 ul of dosing solution is delivered. The animals are visually monitored during the recovery process, which typically occurs within two minutes. It is noted that the test compounds may be alternatively administered via the microsprayer in a dry powder blend with a suitable excipient, such as lactose.
Rats treated with compound or vehicle (15 min-24 hours pretreatment) are exposed to an LPS aerosol (100 ug/ml) for 15 min. Four hours later the rats are euthanized with pentobarbital (100 mg/kg, i.p.) and the airways are lavaged with 5 washes of 5 ml of phosphate buffered saline. The harvested cells are stained (Diffquick) and counted to determine total and differential cell data. […] Inhibition of neutrophil levels relative to no compound controls is calculated based on the differential counts.
The data is obtained as % inhibition using a particular concentration and pretreat time.

The source of these data is US20100144755A1 (Glaxo Group Limited, priority 2006, published 2010).

Structures can show the parent of a compound that is named as a salt.

For the molecule `CCN(CC)CCCNc1nc(-c2cc(C(=O)NC3CCCC3)ccc2C)c2ccc(=O)n(-c3c(F)cccc3F)c2n1` [Example 125, N-cyclopentyl-3-[2-{[3-(diethylamino)propyl]amino}-8-(2,6-difluorophenyl)-7-oxo-7,8-dihydropyrido[2,3-d]pyrimidin-4-yl]-4-methylbenzamide], the inhibition of neutrophilia entry was “statistically nonsignificant inhibition”.
`CCN(CC)CCCNc1nc(-c2cc(C(=O)NCC(F)(F)F)ccc2C)c2ccc(=O)n(-c3c(F)cccc3F)c2n1` [Example 128, 3-[2-{[3-(diethylamino)propyl]amino}-8-(2,6-difluorophenyl)-7-oxo-7,8-dihydropyrido[2,3-d]pyrimidin-4-yl]-4-methyl-N-(2,2,2-trifluoroethyl)benzamide]: the inhibition of neutrophilia entry is “inactive”.
With `CCNC(=O)c1ccc(C)c(-c2nc(NCCCN(CC)CC)nc3c2ccc(=O)n3-c2c(F)cccc2F)c1` [Example 129, 3-[2-{[3-(diethylamino)propyl]amino}-8-(2,6-difluorophenyl)-7-oxo-7,8-dihydropyrido[2,3-d]pyrimidin-4-yl]-N-ethyl-4-methylbenzamide] the entry was “statistically nonsignificant inhibition”; with `CCN(CC)CCCNc1nc(-c2cc(C(=O)NCC3CCCC3)ccc2C)c2ccc(=O)n(-c3c(F)cccc3F)c2n1` [Example 132, N-(cyclopentylmethyl)-3-[2-{[3-(diethylamino)propyl]amino}-8-(2,6-difluorophenyl)-7-oxo-7,8-dihydropyrido[2,3-d]pyrimidin-4-yl]-4-methylbenzamidetrifluoroacetate], “statistically nonsignificant inhibition”; with `CCN(CC)CCCNc1nc(-c2cc(C(=O)NCCF)ccc2C)c2ccc(=O)n(-c3c(F)cccc3F)c2n1` [Example 133, 3-[2-{[3-(diethylamino)propyl]amino}-8-(2,6-difluorophenyl)-7-oxo-7,8-dihydropyrido[2,3-d]pyrimidin-4-yl]-N-(2-fluoroethyl)-4-methylbenzamidetrifluoroacetate], “statistically significant inhibition”.
Turning to `CCN(CC)CCCNc1nc(-c2cc(C(=O)NCCOC)ccc2C)c2ccc(=O)n(-c3c(F)cccc3F)c2n1` [Example 134, 3-[2-{[3-(diethylamino)propyl]amino}-8-(2,6-difluorophenyl)-7-oxo-7,8-dihydropyrido[2,3-d]pyrimidin-4-yl]-4-methyl-N-[2-(methyloxy)ethyl]benzamidetrifluoroacetate], the inhibition of neutrophilia result was “statistically nonsignificant inhibition”.
As for `CCN(CC)CCCNc1nc(-c2cc(C(=O)NCC3CCCCC3)ccc2C)c2ccc(=O)n(-c3c(F)cccc3F)c2n1` [Example 135, N-(cyclohexylmethyl)-3-[2-{[3-(diethylamino)propyl]amino}-8-(2,6-difluorophenyl)-7-oxo-7,8-dihydropyrido[2,3-d]pyrimidin-4-yl]-4-methylbenzamidetrifluoroacetate], the entry is “inactive”.
As for `CCN(CC)CCCNc1nc(-c2cc(C(=O)NC3CCC3)ccc2C)c2ccc(=O)n(-c3c(F)cccc3F)c2n1` [Example 137, N-cyclobutyl-3-[2-{[3-(diethylamino)propyl]amino}-8-(2,6-difluorophenyl)-7-oxo-7,8-dihydropyrido[2,3-d]pyrimidin-4-yl]-4-methylbenzamide trifluoroacetate], the entry is “statistically significant inhibition”; as for `CCN(CC)CCCNc1nc(-c2cc(C(=O)NCC3CC3)ccc2C)c2ccc(=O)n(-c3c(F)cccc3F)c2n1` [Example 138, N-(cyclopropylmethyl)-3-[2-{[3-(diethylamino)propyl]amino}-8-(2,6-difluorophenyl)-7-oxo-7,8-dihydropyrido[2,3-d]pyrimidin-4-yl]-4-methylbenzamide trifluoroacetate], “statistically nonsignificant inhibition”; as for `CCN(CC)CCCNc1nc(-c2cc(C(=O)Nc3ccccc3)ccc2C)c2ccc(=O)n(-c3c(F)cccc3F)c2n1` [Example 147, 3-[2-{[3-(diethylamino)propyl]amino}-8-(2,6-difluorophenyl)-7-oxo-7,8-dihydropyrido[2,3-d]pyrimidin-4-yl]-4-methyl-N-phenylbenzamide], “statistically nonsignificant inhibition”.
As for `CCN(CC)CCCNc1nc(-c2cc(C(=O)N[C@@H](C)c3ccccc3)ccc2C)c2ccc(=O)n(-c3c(F)cccc3F)c2n1` [Example 149, 3-[2-{[3-(diethylamino)propyl]amino}-8-(2,6-difluorophenyl)-7-oxo-7,8-dihydropyrido[2,3-d]pyrimidin-4-yl]-4-methyl-N-[(1S)-1-phenylethyl]benzamide], the entry is “inactive”; as for `CCN(CC)CCCNc1nc(-c2cc(C(=O)Nc3ccc(F)cc3)ccc2C)c2ccc(=O)n(-c3c(F)cccc3F)c2n1` [Example 160, 3-[2-{[3-(diethylamino)propyl]amino}-8-(2,6-difluorophenyl)-7-oxo-7,8-dihydropyrido[2,3-d]pyrimidin-4-yl]-N-(4-fluorophenyl)-4-methylbenzamide], “statistically significant inhibition”; as for `CCC(C)NC(=O)c1ccc(C)c(-c2nc(NCCCN(CC)CC)nc3c2ccc(=O)n3-c2c(F)cccc2F)c1` (stereo not drawn) [Example 162, 3-[2-{[3-(diethylamino)propyl]amino}-8-(2,6-difluorophenyl)-7-oxo-7,8-dihydropyrido[2,3-d]pyrimidin-4-yl]-4-methyl-N-(1-methylpropyl)benzamide], “statistically nonsignificant inhibition”.
`CCCNC(=O)c1ccc(C)c(-c2nc(N3CCC(N4CCC(C)CC4)CC3)nc3c2ccc(=O)n3-c2c(F)cccc2F)c1` [Example 166, 3-[8-(2,6-difluorophenyl)-2-(4-methyl-1,4′-bipiperidin-1′-yl)-7-oxo-7,8-dihydropyrido[2,3-d]pyrimidin-4-yl]-4-methyl-N-propylbenzamide]: the inhibition of neutrophilia entry is reported as “statistically significant inhibition”.
As for `CCCCNC(=O)c1ccc(C)c(-c2nc(N3CCC(N4CCC(C)CC4)CC3)nc3c2ccc(=O)n3-c2c(F)cccc2F)c1` [Example 167, N-butyl-3-[8-(2,6-difluorophenyl)-2-(4-methyl-1,4′-bipiperidin-1′-yl)-7-oxo-7,8-dihydropyrido[2,3-d]pyrimidin-4-yl]-4-methylbenzamide], the entry is “statistically significant inhibition”; as for `Cc1ccc(C(=O)NCC(C)C)cc1-c1nc(N2CCC(N3CCC(C)CC3)CC2)nc2c1ccc(=O)n2-c1c(F)cccc1F` [Example 168, 3-[8-(2,6-difluorophenyl)-2-(4-methyl-1,4′-bipiperidin-1′-yl)-7-oxo-7,8-dihydropyrido[2,3-d]pyrimidin-4-yl]-4-methyl-N-(2-methylpropyl)benzamide], “inactive”.
With `Cc1ccc(C(=O)NC2CCCC2)cc1-c1nc(N2CCC(N3CCC(C)CC3)CC2)nc2c1ccc(=O)n2-c1c(F)cccc1F` [Example 169, N-cyclopentyl-3-[8-(2,6-difluorophenyl)-2-(4-methyl-1,4′-bipiperidin-1′-yl)-7-oxo-7,8-dihydropyrido[2,3-d]pyrimidin-4-yl]-4-methylbenzamide] the entry was “statistically nonsignificant inhibition”; with `Cc1ccc(C(=O)NCC(F)(F)F)cc1-c1nc(N2CCC(N3CCC(C)CC3)CC2)nc2c1ccc(=O)n2-c1c(F)cccc1F` [Example 172, 3-[8-(2,6-difluorophenyl)-2-(4-methyl-1,4′-bipiperidin-1′-yl)-7-oxo-7,8-dihydropyrido[2,3-d]pyrimidin-4-yl]-4-methyl-N-(2,2,2-trifluoroethyl)benzamide], “inactive”; with `CCNC(=O)c1ccc(C)c(-c2nc(N3CCC(N4CCC(C)CC4)CC3)nc3c2ccc(=O)n3-c2c(F)cccc2F)c1` [Example 173, 3-[8-(2,6-difluorophenyl)-2-(4-methyl-1,4′-bipiperidin-1′-yl)-7-oxo-7,8-dihydropyrido[2,3-d]pyrimidin-4-yl]-N-ethyl-4-methylbenzamide], “statistically significant inhibition”.
With `Cc1ccc(C(=O)Nc2ccc(F)cc2)cc1-c1nc(N2CCC(N3CCC(C)CC3)CC2)nc2c1ccc(=O)n2-c1c(F)cccc1F` [Example 174, 3-[8-(2,6-difluorophenyl)-2-(4-methyl-1,4′-bipiperidin-1′-yl)-7-oxo-7,8-dihydropyrido[2,3-d]pyrimidin-4-yl]-N-(4-fluorophenyl)-4-methylbenzamide] the entry was “inactive”; with `Cc1ccc(C(=O)NC2CCC2)cc1-c1nc(N2CCC(N3CCC(C)CC3)CC2)nc2c1ccc(=O)n2-c1c(F)cccc1F` [Example 175, N-cyclobutyl-3-[8-(2,6-difluorophenyl)-2-(4-methyl-1,4′-bipiperidin-1′-yl)-7-oxo-7,8-dihydropyrido[2,3-d]pyrimidin-4-yl]-4-methylbenzamide], “inactive”.
